Results on 15 molecules are retold here after ChEMBL document CHEMBL1138959, “Novel class of cyclophosphamide prodrug: cyclophosphamide spiropiperaziniums (CPSP)” (Bioorg Med Chem Lett, 2006).

Structures are written as SMILES.

For series [1], the system named is CCRF S-180. In words: Antitumor activity against S180 cells implanted in mouse at 30 mg/kg, ip. Type of series: functional. The settings on record: route intraperitoneal; for inhibition in vivo at 30 mg/kg: Mus musculus, CCRF S-180, ip.
For series [2], the system named is CCRF S-180. In words: Antitumor activity against S180 cells implanted in mouse at 60 mg/kg, ip. To be noted: CCRF S-180, ip, route intraperitoneal. Type of series: functional.
For series [3], the system named is H22. In words: Antitumor activity against H22 cells implanted in mouse at 15 mg/kg, ip. It is filed as functional. To be noted: route intraperitoneal.
Series [4] deals with H22. In words: Antitumor activity against H22 cells implanted in mouse at 30 mg/kg, ip. It is filed as functional. The settings on record: route intraperitoneal; for inhibition in vivo at 30 mg/kg: Mus musculus, H22, ip.
The nature of series [5]: Toxicity in ip dosed mouse. It is filed as organism-based. To be noted: in vivo.
The test system of series [6] is H22. In words: Antitumor activity against H22 cells implanted in mouse at 60 mg/kg, ip. It is filed as functional. The settings on record: route intraperitoneal.
Series [7] concerns CCRF S-180. In words: Antitumor activity against S180 cells implanted in mouse at 15 mg/kg, ip. The settings on record: CCRF S-180, ip, route intraperitoneal. Type of series: functional.

In the case of `CN1CC[N+]2(CC1)CCN(P1(=O)NCCCO1)CC2.[Cl-]` (centres undefined), the results for the Inhibition in the series on CCRF S-180 [1] and with H22 [4] were 42.31% and 41.66%, respectively. Moreover, the inhibition in vivo (commonly the relative decrease from the control value, in per cent) at 60 mg/kg came to 55.2% with CCRF S-180 [2] and 38% with H22 [6]. The values for the inhibition in vivo at 15 mg/kg with H22 [3] and with CCRF S-180 [7] were 24.4% and 37.5%, respectively. For the same molecule, in series [5], the LD50 (usually the dose at which mortality reaches 50%) was found to be 1200 mg/kg.
As for `O=P1(N2CC[N+]3(CCNCC3)CC2)NCCCO1` (centres undefined), the inhibition in vivo at 30 mg/kg in the series on CCRF S-180 [1] stood at 10.7%; with H22 [4], 8.64%.
For the molecule `CN1CC[N+]2(CC1)CCN(P1(=O)NCCCO1)CC2.[Br-]` (centres undefined), the Inhibition (as a rule, the relative decrease from the control value, in per cent) in the series with CCRF S-180 [1] worked out at 18.72%; with H22 [4] it was 11.6%.
For the molecule `C[N+]1(Cc2ccccc2)CCN(P2(=O)NCCCO2)CC1` (centres undefined), the inhibition in vivo at 30 mg/kg in the series on CCRF S-180 [1] is -3.28%; in the series on H22 [4], -6.63%.
For the molecule `CN1CC[N+]2(CC1)CCN(P1(=O)NCCCO1)CC2.[I-]` (centres undefined), the Inhibition with CCRF S-180 [1] was 29.41%; in the series on H22 [4], 16.19%.
As for `O=P1(N2CC[N+]3(CCCCCC3)CC2)NCCCO1.[Cl-]` (centres undefined), the values for the inhibition in vivo at 30 mg/kg in the series on CCRF S-180 [1] and in the series on H22 [4] were 36% and 48.4%, respectively. Also, the results for the inhibition in vivo at 60 mg/kg with CCRF S-180 [2] and with H22 [6] were 53.4% and 51.3%, respectively. Further, the inhibition in vivo at 15 mg/kg with H22 [3] was found to be 17.2%; with CCRF S-180 [7] it was 38.2%. Besides, the LD50 in series [5] stood at 239 mg/kg.
As for `O=P1(N2CC[N+]3(CCCCC3)CC2)NCCCO1` (centres undefined), the inhibition in vivo at 30 mg/kg with CCRF S-180 [1] stood at 39.9%; in the series with H22 [4], 12.8%.
The corresponding values for `O=P1(N2CC[N+]3(CCCC3)CC2)NCCCO1` (centres undefined) are 26.7% and 17.3%.
Consider `O=P1(N2CC[N+]3(CCOCC3)CC2)NCCCO1` (centres undefined), for which the inhibition in vivo at 30 mg/kg in the series on CCRF S-180 [1] is -27.6%; in the series with H22 [4] it was 32.5%.
The matching figures for `CC1C[N+]2(CCN(P3(=O)NCCCO3)CC2)CC(C)O1` (centres undefined): 46.6% and 20.6%.
As for `O=P1(N2CC[N+]3(CCN(Cc4ccccc4)CC3)CC2)NCCCO1` (centres undefined), in the series with CCRF S-180 [1], the inhibition in vivo at 30 mg/kg was found to be 33.7%.
On to `O=P1(N2CC[N+]3(CCc4ccccc4C3)CC2)NCCCO1` (centres undefined), for which the inhibition in vivo at 30 mg/kg with CCRF S-180 [1] amounted to 18.9%.
On to `O=P1(N(CCCl)CCCl)NCCCO1` (centres undefined) [CYCLOPHOSPHAMIDE ANHYDROUS], for which the inhibition in vivo at 30 mg/kg with CCRF S-180 [1] was determined as 72.9%; with H22 [4], 72%. Further, in series [5], the LD50 came out at 387 mg/kg.
In the case of `CC1CC[N+]2(CC1)CCN(P1(=O)NCCCO1)CC2` (centres undefined), the inhibition in vivo at 30 mg/kg with CCRF S-180 [1] is -13.3%; in the series on H22 [4], 32.2%.
With `C[N+]1(C)CCN(P2(=O)NCCCO2)CC1` (centres undefined), the inhibition in vivo at 30 mg/kg turned out to be 33.5% with CCRF S-180 [1] and 28.8% in the series on H22 [4].
